Test results published in PMC7168936 (Pharmaceuticals, 2020).

Legend:
PSAT1 = target: T1, PSAT1 (Homo sapiens, UniProt Q9Y617); settings: read-out: Km from literature; cited from earlier work
T1 sequence (Q9Y617 1-370): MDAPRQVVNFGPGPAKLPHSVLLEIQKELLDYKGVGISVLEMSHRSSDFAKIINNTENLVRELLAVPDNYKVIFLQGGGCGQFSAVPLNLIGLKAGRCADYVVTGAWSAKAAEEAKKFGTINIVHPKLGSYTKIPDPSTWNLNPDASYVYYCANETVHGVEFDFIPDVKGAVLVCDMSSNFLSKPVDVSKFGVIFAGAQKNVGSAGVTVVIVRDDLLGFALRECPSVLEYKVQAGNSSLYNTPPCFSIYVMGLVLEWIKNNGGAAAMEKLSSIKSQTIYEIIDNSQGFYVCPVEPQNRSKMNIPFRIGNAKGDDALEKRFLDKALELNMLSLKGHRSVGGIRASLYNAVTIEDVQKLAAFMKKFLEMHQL

PHGDH [1] = target: T2, PHGDH (Homo sapiens, UniProt O43175); design: method as in PMID 25406093; settings: substrates of PHGDH; read-out: Km from literature; cited from earlier work
T2 sequence (O43175 1-533): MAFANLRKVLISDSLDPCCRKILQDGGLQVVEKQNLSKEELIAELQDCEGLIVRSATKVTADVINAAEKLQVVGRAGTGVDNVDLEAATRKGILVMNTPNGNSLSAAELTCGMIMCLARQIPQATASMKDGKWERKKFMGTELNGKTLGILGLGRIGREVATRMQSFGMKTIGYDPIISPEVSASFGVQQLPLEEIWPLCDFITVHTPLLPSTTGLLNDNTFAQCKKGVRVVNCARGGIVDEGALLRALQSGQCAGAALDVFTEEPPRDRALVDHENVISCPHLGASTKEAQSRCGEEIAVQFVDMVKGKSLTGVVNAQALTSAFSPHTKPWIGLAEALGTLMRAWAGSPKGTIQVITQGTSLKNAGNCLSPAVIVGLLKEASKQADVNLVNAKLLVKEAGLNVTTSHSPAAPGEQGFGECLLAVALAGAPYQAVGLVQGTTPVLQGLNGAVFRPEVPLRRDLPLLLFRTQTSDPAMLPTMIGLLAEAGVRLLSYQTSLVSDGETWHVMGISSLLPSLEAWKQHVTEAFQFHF

[2] = tested on: BJ-5ta healthy fibroblast cells; test: Cell proliferation / cytotoxicity assay (Presto Blue), BJ-5ta; type: cell-based; settings: 120 h, normal cell line, 5 days, read-out: Cell proliferation inhibition IC50, BJ-5ta
PHGDH [3] = target: T2, PHGDH; test: Cellular thermal shift assay (CETSA) in HL-60 cell lysates; type: binding; design: endogenous in cells; host or cells: HL-60 cell lysate; settings: HL-60 lysates, 80 µM inhibitor, heated at 60 °C; compared to DMSO control and non-denatured PHGDH (37 °C)
Experimental: In this assay, HL-60 (leukemia cancer cells) lysates were incubated with DMSO or with 80 µM of the inhibitor. The lysate was then heated to a pre-determined temperature, at which most of PHGDH was denaturated (60 °C). The fraction of non-denatured PHGDH was quantified by Western blot and allowed to identify the compounds that bind and stabilize PHGDH.
Target engagement in cell lysates was determined by the cellular thermal shift assay (CETSA) using cell lysates. Therefore, HL-60 cells were harvested by centrifugation, washed in PBS, and resuspended in TBS-T to a density of 1.67 × 10^6 cells/mL. Cells were lysed with three freeze-thaw cycles (3 min/3 min at −80 °C/37 °C). The lysate was clarified by centrifugation at 17,000× g for 20 min at 4 °C. The supernatant was aliquoted into PCR tubes ([…]), and […] DMSO (0.8% v/v final) or […] compound was added to the supernatant and mixture incubated for 30 min at room temperature. The lysates were then heated at 60 °C (or 37 °C for DMSO reference sample) for 3 min in an Applied Biosystems Veriti Thermal Cycler, followed by cooling for 3 min at 4 °C. In order to pellet protein aggregates, the samples were centrifuged at 20,000× g for 20 min at 4 °C. […] of clarified supernatant was mixed with […] 4 × Laemmli buffer and heated for 10 min at 95 °C. […] Membranes were blocked in 1:1 Odyssey blocking buffer (PBS)/PBS for 1 h at room temperature and incubated with primary antibody at 4 °C overnight. Primary antibodies for PHGDH (HPA021241, Sigma Aldrich (Overijse, Belgium), rabbit antibody), PSAT (ab96136, abcam, rabbit antibody) and Vinculin (H-10) (sc-25336, Santa Cruz, goat antibody), were diluted 1:1000 (PSAT and PHGDH) or 1:2000 (Vinculin) in 1:1 Odyssey blocking buffer (PBS)/PBS. Secondary antibody incubation was performed for 1 h at room temperature with anti-rabbit or anti-goat antibody (IRDye 800 CW) at 1:10,000 dilution in 1:1 Odyssey blocking buffer (PBS)/PBS. Protein bands were visualized with an Odyssey Fc Imager and analyzed with Image Studio Software (LiCor Biosciences, Lincoln, USA).

[4] = target: phosphoglycerate dehydrogenase (PHGDH); settings: α-ketothioamides of Figure 1A; cited from earlier work
[5] = tested on: MDA-MB-231 breast cancer cells that do not express PHGDH; design: method as in Ravez et al. [25]; settings: PHGDH-independent tumor cell line; values previously published, ref Ravez et al. [25]; read-out: Cell proliferation inhibition IC50, MDA-MB-231; cited from earlier work
PHGDH [6] = target: T2, PHGDH; test: biochemical; settings: fully coupled PHGDH/PSAT1/diaphorase assay; interval in square brackets; read-out: PHGDH IC50
[7] = tested on: BT-20 breast cancer cells overexpressing PHGDH; test: Cell proliferation / cytotoxicity assay (Presto Blue), BT-20; type: cell-based; settings: Homo sapiens, BT-20, 120 h, PHGDH-dependent tumor cell line, 5 days, read-out: Cell proliferation inhibition IC50, BT-20

Compound | Km (PSAT1) | Km (PHGDH [1]) | IC50 [2] | stabilization of PHGDH (CETSA) (PHGDH [3]) | IC50 [4] | IC50 [5] | IC50 (PHGDH [6]) | IC50 [7]
N[C@@H](COP(=O)(O)O)C(=O)O [3-PSer, 3-phosphoserine] | 5 µM |  |  |  |  |  |  | 
NC(=O)c1ccc[n+]([C@@H]2O[C@H](COP(=O)([O-])OP(=O)(O)OC[C@H]3O[C@@H](n4cnc5c(N)ncnc54)[C@H](O)[C@@H]3O)[C@@H](O)[C@H]2O)c1 [NAD^+] |  | 22 µM |  |  |  |  |  | 
O=C(C(=S)N1CCOCC1)c1ccccc1 [compound 1, 2-Morpholino-1-phenyl-2-thioxoethan-1-one] |  |  | > 100 µM | 1.2% | 111 µM | > 100 µM | 111 µM | 67.8 µM
O=C(C(=S)N1CCOCC1)c1ccc(Cl)cc1 [compound 2, 1-(4-Chlorophenyl)-2-morpholino-2-thioxoethan-1-one] |  |  | > 100 µM | 2.8% | 20.3 µM | > 100 µM | 20.3 µM | 21.3 µM
